Data: US4415570A, “Nicotinic acid derivatives” (Nippon Shinyaku Co. Ltd., priority 1981, dated 1983)

What was measured:
[1] = test system: reversed passive Arthus reaction; assay: Reversed passive Arthus reaction (RPAR) inhibition, leakage area of Evans Blue; format: in vivo, rats; settings: for RPAR inhibitory action: oral administration
Procedure: Activity of RPAR inhibition of the compounds of the present invention was measured in the following manner. Anti-BSA serum was obtained from rabbits that were previously administered bovine serum albumin ("BSA"). The anti-BSA serum was applied to four parts of the skin of the abdomens of rats previously treated with BSA and Evans Blue. The anti-BSA serum and the BSA and Evans Blue were administered to the rats subcutaneously. […] The local inflammation was determined by examining each of the four inflamed parts and measuring for each part the area from which there was leakage of Evans Blue. The data from the test animals were compared to the control animals, and a reduction in the leakage area of 20% or more was defined as a positive effect. The RPAR inhibition activity is reported as the number of positive effects per animal, divided by 4. Thus, two positive effects would be an RPAR of 2/4.

[2] = test system: carrageenin edema; assay: carrageenin edema inhibiting activity; format: in vivo; settings: intraperitoneal injection, 50 mg/kg
Text: The RPAR inhibition activity of the compounds (I) of the present invention is not related to its anti-inflammatory activity.

[3] = Table I, 200 mg/kg body weight orally, number of positive effects (leakage area reduced 20% or more) out of 4 parts
[4] = Table 2, 200 mg/kg p.o., number of positive effects out of 4 parts
[5] = Table 2, 500 mg/kg p.o., number of positive effects out of 4 parts

Question: How did the “RPAR Inhibition” value [1, 3] turn out when CCN(CC)c1nc(NC(=O)c2cccnc2)nc(-c2ccc(Cl)c(Cl)c2)n1 [Compound 7] was run?
Answer: 3/4

Question: For Nc1nc(NC(=O)c2cccnc2)nc(-c2c(Cl)cccc2Cl)n1 [Compound 14], which “RPAR Inhibition” value [1, 4] is on record?
Answer: 0/4

Question: For O=C(Nc1nc(-c2ccc(Cl)cc2)nc(N2CCCC2)n1)c1cccnc1 [Compound 1], which “RPAR Inhibition” value [1, 3] is on record?
Answer: 2/4

Question: How did the “RPAR inhibition activity (in words)” value [1] turn out when Nc1nc(NC(=O)c2cccnc2)nc(-c2ccc(Cl)cc2)n1 [Compound 15] was run?
Answer: no RPAR inhibition activity

Question: And the “RPAR Inhibition” value [1, 4]?
Answer: 0/4

Question: And the “carrageenin edema inhibiting activity” value [2]?
Answer: 56.8%

Question: Which “RPAR inhibition activity (in words)” value [1] does the source give for Nc1nc(N)nc(-c2cc(Cl)ccc2Cl)n1 [Compound 11] here?
Answer: do not exhibit RPAR inhibition activity at all

Question: And the “RPAR Inhibition” value [1, 5]?
Answer: 0/4

Question: How did the RPAR inhibitory action ([1]; 10 mg/kg) turn out when COc1ccc2c(c1)c(CC(=O)O)c(C)n2C(=O)c1ccc(Cl)cc1 [indomethacin] was run?
Answer: no RPAR inhibitory action

Question: With O=C(Nc1nc(-c2cc(Cl)ccc2Cl)nc(N2CCOCC2)n1)c1cccnc1 [Compound 9] as the molecule, how does the “RPAR inhibition activity (in words)” value [1] read?
Answer: strongly inhibits RPAR

Question: And the “RPAR Inhibition” value [1, 3]?
Answer: 4/4

Question: What about the “carrageenin edema inhibiting activity” value [2] of the same molecule?
Answer: 21%

Question: Nc1nc(NC(=O)c2cccnc2)nc(-c2cccc(Cl)c2)n1 [Compound 16] was tested. Which “RPAR Inhibition” value [1, 4] did it give?
Answer: 0/4

Question: For O=C(Nc1nc(-c2cc(Cl)ccc2Cl)nc(N2CCCCC2)n1)c1cccnc1 [Compound 8], which “RPAR Inhibition” value [1, 3] is on record?
Answer: 3/4

Question: Which “RPAR Inhibition” value [1, 3] does the source give for CN(C)c1nc(NC(=O)c2cccnc2)nc(-c2ccc(F)cc2)n1 [Compound 10] here?
Answer: 3/4

Question: With Nc1nc(N)nc(-c2ccc(Cl)cc2)n1 [Compound 12] as the molecule, how does the “RPAR inhibition activity (in words)” value [1] read?
Answer: do not exhibit RPAR inhibition activity at all

Question: And the “RPAR Inhibition” value [1, 5]?
Answer: 0/4

Question: How did the “RPAR Inhibition” value [1, 4] turn out when Nc1nc(NC(=O)c2cccnc2)nc(-c2ccccc2I)n1 [Compound 17] was run?
Answer: 1/4

Question: With O=C(Nc1nc(-c2ccccc2Cl)nc(N2CCCCC2)n1)c1cccnc1 [Compound 3] as the molecule, how does the “RPAR Inhibition” value [1, 3] read?
Answer: 2/4

Question: Which results are given for Nc1nc(NC(=O)c2cccnc2)nc(-c2ccccc2)n1 [Compound 13]?
Answer: RPAR inhibition activity (in words) [1]: little or no RPAR inhibition activity; RPAR Inhibition [1, 4]: 0/4; RPAR Inhibition [1, 5]: 2/4

Question: O=C(Nc1nc(-c2ccccc2Cl)nc(N2CCCC2)n1)c1cccnc1 [Compound 5] was tested. Which “RPAR Inhibition” value [1, 3] did it give?
Answer: 2/4

Question: How did the RPAR inhibitory action ([1]; 200 mg/kg) turn out when CC(=O)Oc1ccccc1C(=O)O [aspirin] was run?
Answer: no RPAR inhibitory action

Question: Which “RPAR Inhibition” value [1, 3] does the source give for O=C(Nc1nc(-c2ccc(Cl)cc2)nc(N2CCOCC2)n1)c1cccnc1 [Compound 2] here?
Answer: 2/4

Question: Which “RPAR Inhibition” value [1, 3] does the source give for O=C(Nc1nc(-c2ccccc2Cl)nc(N2CCOCC2)n1)c1cccnc1 [Compound 4] here?
Answer: 2/4

Question: For CCCCNc1nc(NC(=O)c2cccnc2)nc(-c2ccc(Cl)c(Cl)c2)n1 [Compound 6], which “RPAR Inhibition” value [1, 3] is on record?
Answer: 2/4

Question: Which RPAR inhibitory action ([1]; 100 mg/kg) does the source give for CCCCC1C(=O)N(c2ccccc2)N(c2ccccc2)C1=O [phenylbutazone] here?
Answer: no RPAR inhibitory action
